Target: T1, human renin (Homo sapiens, UniProt P00797)
T1 construct: purchased National Institute for Biological Standards, London
T1 sequence (P00797 67-406): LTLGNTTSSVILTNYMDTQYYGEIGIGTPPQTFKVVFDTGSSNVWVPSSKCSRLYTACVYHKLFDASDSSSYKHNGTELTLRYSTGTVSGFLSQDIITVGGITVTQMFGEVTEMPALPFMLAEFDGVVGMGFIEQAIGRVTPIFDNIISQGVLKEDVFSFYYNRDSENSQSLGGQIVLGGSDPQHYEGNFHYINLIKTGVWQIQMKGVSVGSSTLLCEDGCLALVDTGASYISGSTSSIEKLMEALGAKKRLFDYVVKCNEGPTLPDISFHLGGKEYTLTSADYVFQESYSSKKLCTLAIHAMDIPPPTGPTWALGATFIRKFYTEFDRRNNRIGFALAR
Assay: Human renin inhibition in vitro
Type: biochemical
Details: human plasma angiotensinogen, pH 7.4, 37° C., two hours; angiotensin I by radioimmunoassay
Experimental: Compounds of Formula I were evaluated as inhibitors of human renin in an in vitro assay, as follows: This human renin inhibition test has been previously described in detail [Papaioannou et al., Clinical and Experimental Hypertension, A7(9), 1243-1257 (1985)]. Human renin was obtained from the National Institute for Biological Standards, London. An incubation mixture was prepared containing the following components: in a total volume of 0.25 mL: 100 mM Tris-acetate buffer at pH 7.4, 25×10^−6 Goldblatt units of renin, 0.05 mL of plasma from human volunteers taking oral contraceptives, 6.0 mM Na-EDTA, 2.4 mM phenylmethyl sulfonyl fluoride, 1.5 mM 8-hydroxyquinoline, 0.4 mg/mL bovine serum albumin (BSA), and 0.024 mg/mL neomycin sulfate. This mixture was incubated for two hours at 37° C. in the presence or absence of renin inhibitors. The produced angiotensin I was determined by radioimmunoassay (New England Nuclear kit). Test compounds to be assayed were dissolved in DMSO and diluted with 100 mM Tris-acetate buffer at pH 7.4 containing 0.5% BSA to the appropriate concentration. The final concentration of organic solvent in the reaction mixture was less than 1%. Control incubations at 37° C. were used to correct for effects of organic solvent on renin activity.

Question: With C#CC[C@H](NC(=O)[C@@H](CC(=O)N(C)CCn1ccnc1)Cc1ccccc1)C(=O)N[C@@H](CC1CCCCC1)[C@@H](O)[C@@H](O)CC(C)C (relative stereo) [Example 1, N^1-[1R*-[[[1S,1R*-(cyclohexylmethyl)-2S*,3R*-dihydroxy-5-methylhexyl]amino]carbonyl]-3-butynyl]-N^4-[2-(1H-imidazol-1-yl)ethyl]-N^4-methyl-2S*-(phenylmethyl)butanediamide] as the molecule, how does the IC50 read?
Answer: 0.18 nM
